PMC5321741, “Arylmethylamino steroids as antiparasitic agents” (Nature Communications, 2017)

Experiments:
P. falciparum strain Dd2 = experiment: 72 h 3H-hypoxanthine incorporation assay, chloroquine-resistant strain; format: cell-based; settings: Plasmodium falciparum
HUVEC = experiment: antiproliferative activity on HUVEC cells; format: cell-based; settings: Homo sapiens, HUVEC, 72 h
Outline: (§1)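 K-562 and HeLa seeded at ∼10,000 cells/well; HeLa preincubated 48 h without compound before cytotoxicity testing. 72 h exposure at 37 °C, 5% CO2; K-562 counted by electronic cell analyzer, HUVEC and HeLa glutaraldehyde-fixed, methylene blue-stained, OD 660 nm; GI50 (antiproliferative) and CC50 (cytotoxicity) derived.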

K-562 = experiment: antiproliferative activity on K-562 cells; format: cell-based; settings: Homo sapiens, K562, 72 h
Outline: as §1

[1] = cytotoxicity on HeLa cells; format: cell-based; settings: human, HeLa cells
Outline: as §1

[2] = system: adult Schistosoma mansoni; experiment: schistosome in vitro culture with inhibitor treatment; format: cell-based; settings: for morphological effects (confocal laser scanning microscopy): 5 μM, 6–13 days; for starting concentration with negative influence on worm physiology: pairing stability, egg production, survival, bright-field microscopy
[3] = target: haem (FeIIIPPIX, π-π dimer); experiment: spectrophotometric titration of haematin π-π dimer; format: binding; settings: absorption spectrophotometric titration, pH 7.5; read-out: Dissociation Constant KD of haematin-drug complex
[4] = system: Alternaria alternata JMRC:SF:09317; experiment: spore inhibition test; format: cell-based; settings: 48 h; start concentration 1 mg/ml (1o, 2o), 100 µg/ml (Amphotericin B)
Experimental: (§2) The following test organisms were used for their susceptibility to compounds 1o and 2o: Alternaria alternata JMRC:SF:09317, Arthroderma benhamiae JMRC:ST:35888, Aspergillus fumigatus JMRC:Afum:00073=ATCC 46645, Aspergillus terreus JMRC:SF:06307, Candida albicans JMRC:ST:35864, Lichtheimia corymbifera JMRC:SF:09682, Penicillium chrysogenum JMRC:SF:10137, Rhizopus arrhizus (syn. R. oryzae) JMRC:SF:05857=ATCC 56536, CBS 112.07.
(§3) Fungi were grown on 3% malt extract solidified medium for 1 to 2 weeks at room temperature. Then the plates were washed with 7 ml sterile distilled water, and the spore suspension was filtered through 4 layers of sterile Miracloth (Kalbiochem, USA) to remove the hyphae. The concentration of the spore suspension was set to 2 × 10^4 conidia ml^−1 for the in vitro assays.
(§4) The spore inhibition assay took place in 96-well microplates (flat base). 50 μl of the prepared spore suspension was seeded and then mixed with 50 μl of the respective inhibitor substance. Tests were started with end concentrations of 1 mg ml^−1 and were then reduced in a minimum of 10 halving steps. Thus a 2 mg ml^−1 stock solution diluted in half ten times with solvent (distilled water, 2% DMSO in distilled water, or 2% DMF in distilled water) and each 50 μl was transferred to 50 μl spore suspension. For each test substance, 12 holes on the microtiter plate were filled. After 24 h incubation (25 °C), the germination of the spores was macroscopically and microscopically examined directly in the microtiter plate via measurement of the optical density and light microscopy using an inverse stereomicroscope with subsequent photodocumentation, respectively. If necessary, the plates were further incubated for another 24 or 48 h, depending on the extent of fungal germination.

[5] = system: Arthroderma benhamiae JMRC:ST:35888; experiment: spore inhibition test; format: cell-based; settings: 72 h
Experimental: as §2, §3, §4

[6] = system: Aspergillus fumigatus JMRC:Afum:00073; experiment: spore inhibition test; format: cell-based; settings: 48 h; start concentration 1 mg/ml (1o, 2o), 100 µg/ml (Amphotericin B)
Experimental: as §2, §3, §4

[7] = system: Aspergillus terreus JMRC:SF:06307; experiment: spore inhibition test; format: cell-based; settings: 48 h; start concentration 1 mg/ml (1o, 2o), 100 µg/ml (Amphotericin B)
Experimental: as §2, §3, §4

[8] = system: Candida albicans JMRC:ST:35864; experiment: spore inhibition test; format: cell-based; settings: 48 h
Experimental: as §2, §3, §4

[9] = system: Lichtheimia corymbifera JMRC:SF:09682; experiment: spore inhibition test; format: cell-based; settings: 48 h; start concentration 1 mg/ml (1o, 2o), 100 µg/ml (Amphotericin B)
Experimental: as §2, §3, §4

[10] = system: Penicillium chrysogenum JMRC:SF:10137; experiment: spore inhibition test; format: cell-based; settings: 48 h
Experimental: as §2, §3, §4

[11] = system: Rhizopus arrhizus (syn. R. oryzae) JMRC:SF:05857; experiment: spore inhibition test; format: cell-based; settings: 48 h; start concentration 1 mg/ml (1o, 2o), 100 µg/ml (Amphotericin B)
Experimental: as §2, §3, §4

[12] = pH 7.5
Experimental: Spectrophotometric titration of 1o or 2o by Cu(II) and Fe(III)
Typically, an aliquot of 250 µl (or 500 µl) of a stock solution (~ 0.89 mM) of 1o or 2o was
dissolved in 2.5 (or 2.0 ml) of a mixed solvent made of 0.2 M sodium hepes buffer at pH 7.5
and DMSO (1:1 v/v) in a 1 cm Hellma optical quartz cell. The absorption spectrophotometric
titrations were carried out by adding microvolumes of a stock solution of the metallic cation (5
mM for Cu(II) or 7.36 mM for Fe(III). Aliquots of 5 µl of the stock metal solution were
successively added to the reaction mixture, and after each addition a UV-visible absorption
spectrum (250 nm < λ < 800 nm) was recorded with an Agilent Cary 5000 spectrophotometer. Special care was taken to ensure that equilibrium was attained after
each addition of the substrate. The association constants KL.M (L = 1o, 2o and M = Fe(III) or
Cu(II)) and the stoichiometry of the species at equilibrium were determined by processing the
spectrophotometric data with the Specfit program. The uncertainties on the log K values are given as 3 with  = standard deviation.

[13] = start concentration 1 mg/ml (1o, 2o), 100 µg/ml (Amphotericin B)
[14] = start concentration 1 mg/ml, given in mg

Row | Compound | IC50 (P. falciparum strain Dd2) [µM] | GI50 (HUVEC) [µM] | GI50 (K-562) [µM] | CC50 at 72 h [1] [µM] | morphological effects (confocal laser scanning microscopy) [2] | starting concentration with negative influence on worm physiology [2] [μM] | Kd [3] [µM] | antifungal profile, 1st value = microscopic visualization-based observation, Alternaria alternata [4] | antifungal profile, 2nd value = optical density-based observation, Alternaria alternata [4] | antifungal profile, 1st value = microscopic visualization-based observation, Arthroderma benhamiae [5, 13] | antifungal profile, 1st value = microscopic visualization-based observation, Aspergillus fumigatus [6] | antifungal profile, 2nd value = optical density-based observation, Aspergillus fumigatus [6] | antifungal profile, 1st value = microscopic visualization-based observation, Aspergillus terreus [7] | antifungal profile, 2nd value = optical density-based observation, Aspergillus terreus [7] | antifungal profile, 2nd value = optical density-based observation, Candida albicans [8, 13] | antifungal profile, 1st value = microscopic visualization-based observation, Lichtheimia corymbifera [9] | antifungal profile, 2nd value = optical density-based observation, Lichtheimia corymbifera [9] | antifungal profile, 2nd value = optical density-based observation, Penicillium chrysogenum [10, 13] | antifungal profile, 1st value = microscopic visualization-based observation, Rhizopus arrhizus [11] | antifungal profile, 2nd value = optical density-based observation, Rhizopus arrhizus [11] | further results
1 | COc1ccc2c(c1)CCC1C2CC[C@@]2(C)C1CC[C@H]2NCc1cc2ccccc2cc1O (some centres unmarked) [1o] | 0.001 ± 0.0009 | 108 | 5 | > 113 | swellings and invaginations occurred at the tegument | 5 | 3.3 | 500 | 250 | 500 | 250 | 250 | 250 | 125 | 500 | 500 | 62.5 | 125 | 500 | 500 | reduction of egg production and motility ([2]; 10 µM, starting from days 1 and 2): about 75%; effect on survival ([2]; 20 µM, from day 2 on): nearly all worms were dead; antifungal profile, 2nd value = optical density-based observation, Arthroderma benhamiae [5, 14]: 1 mg; antifungal profile, 1st value = microscopic visualization-based observation, Candida albicans [8, 14]: 1 mg; antifungal profile, 1st value = microscopic visualization-based observation, Penicillium chrysogenum [10, 14]: 1 mg; stability constants log KLM of 1:1 complexes [12]: 4.1-4.7
2 | COc1ccc2c(c1)CCC1C2CC[C@@]2(C)C1CC[C@@H]2NCc1cc2ccccc2cc1O (some centres unmarked) [2o] | 0.002 ± 0.0012 | 13.8 | 2.5 | > 113 | the diameter of the testicular lobes was reduced, the ovary was disorganized | 1 | 8.3 | 125 | 15,6 | 31.2 | 250 | 125 | 250 | 4 | 250 | 62.5 | 7.8 | 125 | 500 | 500 | effect on survival ([2]; 10 µM): caused the death of the parasites within a week; time to death of worms ([2]; 10 µM): ≤ 3 days; time to death of worms ([2]; 20 µM): 1 days; antifungal profile, 2nd value = optical density-based observation, Arthroderma benhamiae [5, 13]: 2; antifungal profile, 1st value = microscopic visualization-based observation, Candida albicans [8, 13]: 500; antifungal profile, 1st value = microscopic visualization-based observation, Penicillium chrysogenum [10, 13]: 250; stability constants log KLM of 1:1 complexes [12]: 4.1-4.7
